Experiments:
Format in all cases: cell-based
[1] = system: Human umbilical-vein endothelial cells; test: Endothelialization: adherent junctions (CD31) of endothelial cells on PET; conditions: PET covalently modified with peptide vs native PET, 36 hours
Procedure: (§1) The polymer used in this study is poly(ethylene terephthalate) (PET). The polymers were first treated in order to create —COOH (carboxyl) functions on the PET surfaces from —OH (hydroxyl) functions. Next, the PET-COOH samples were immersed in a solution of dimethylaminopropyl-3-ethylcarbodiimide hydrochloride (EDC, 0.2 M)+N-hydroxysuccinimide (NHS, 0.1 M) in 2-(N-morpholino)-ethanesulfonic acid (MES) buffer (0.1 M in MilliQ water) and the samples were rinsed in MilliQ water (50 mL for 30 min). The same protocol was used for all the polymers containing —OH (hydroxyl) functions on their extreme surface. Finally, the covalent immobilization of the peptides was achieved by using a solution of peptides/1×PBS (C=10^−3 M) incubated for 18 hours at room temperature. After grafting, the materials were rinsed in MilliQ water (100 ml) for 1 week.
An increase in the area of the adherent junctions (CD31) was observed after 36 hours of culture on the covalently modified PET (FIG. 13).

[2] = system: Human umbilical-vein endothelial cells; test: Angiogenesis: tube-like structure formation on PET; conditions: PET covalently modified with peptide, 18 hours
Procedure: as §1

[3] = system: Neurons (Neuronal Schwann Cells); test: Neuron growth on titanium (dendrite growth, GAP43 Q-PCR); conditions: titanium covalently modified with peptide
From the text: […]

[4] = system: Human Mesenchymal Stem Cells (hMSCs); test: Osteogenic differentiation of human mesenchymal stem cells (Runx2/Osterix immunostaining, ALP activity); conditions: type-I collagen sponge coupled with peptide, 1 week of culture
[5] = system: mouse mesenchymal pre-osteoblastic cells (MC3T3-E1); test: Osteogenic differentiation of osteoblast progenitors (optical profilometry of extracellular matrix, Runx2 Q-PCR, Osteopontin immunostaining); conditions: apatite ceramics or type-I collagen sponge coupled with peptide vs native type-I collagen sponge, 48 hours
Procedure: The surface profiler system is a non-contact optical profiler that measures a wide range of surface heights. The vertical scanning interferometry mode allows for the measurement of rough surfaces and steps of up to several micrometers. This mode was used in order to measure the thickness of the extracellular matrix produced by the cells. First, after 24 h of culture, the cells were fixed with paraformaldehyde in PBS (4%) for 30 minutes at 4° C. and the samples were dehydrated in increasing concentrations of ethanol (30, 70, 80, 90, 95 and 100%) and critical-point dried. To evaluate the extent of the newly synthesized extracellular matrix, a spatula was used to scratch the surface of the materials. The samples were then metallized for 10 sec with gold or titanium before being analyzed.
The cells were first fixed for 20 min with 4% paraformaldehyde/PBS at 4° C. […]
Total RNA was extracted by using the RNeasy total RNA kit (Qiagen®) according to the manufacturer's instructions. […] Data were analyzed with the iCycler IQ™® software and compared by the ΔΔCt method. […]
The effect of the GFR-binding compounds as described herein (SEQ ID NO: 33) on the differentiation of osteoblast progenitors was evaluated. […]
An increase in the Runx2 gene expression after 24 hours of culture (FIG. 11) was observed by using Quantitative Real Time Polymerase Chain Reaction as described in the Methods section.

## CVPTEERSVKVAKVRIKPHQGQHKEVQV (GFR-binding peptide) [SEQ ID NO: 38]
[1]
  area of the adherent junctions (CD31): increase

## CVPTEESNITMQIMRIKPHQGQHIGEMSFL (GFR-binding peptide) [SEQ ID NO: 39]
[2]
  formation of tube-like structures: formation of tube-like structures was observed

## CTVPKPSSAPTQLSPISILYIDAANNVVYKQYEDMVVRA (CTVPKPXXAPTQLSPISILYIDAANNVVYKQYEDMVVRA; GFR-binding peptide; MOD_RES (7), (8): Xaa is C or S) [SEQ ID NO: 49]
[3]; 6 hours
  establishment of cell-cell contacts via dendrite growth: rapid establishment
[3]; 48 hours
  Growth Associated Protein 43 (GAP43) gene expression (Q-PCR): high level of expression

## WWFWGKASSVPTELSPISTLYKDENEKVVLKYHYDMVVEGSGSR (WWFWGKASSVPTELSPISTLYKDENEKVVLKYHYDMVVEGXGXR; GFR-binding peptide; MOD_RES (41), (43): Xaa is C or S) [SEQ ID NO: 32]
[4]
  ALP (Alkaline Phosphatase) activity: increase

## WWFWGASSAVSQELSAISMLYLGGGLKNYQDMQHN (GFR-binding peptide) [SEQ ID NO: 33]
[5]
  production of extracellular matrix proteins such as Osteopontin (OPN): extensive amounts
